Earlier results on five compounds are cited in patent US12533344B2, “Formulations” (Glaukos Corporation, priority 2021, dated 2026).

The conditions of the series: for Effective Buffering Range: pH range.

Where two headings read alike, the source gives them in different places.

In the case of `O=C1O[C@H]([C@@H](O)CO)C(O)=C1O` [Ascorbic acid], the “Effective Buffering Range” value is recorded as 3.3-6.2.

In the case of `O=C(O)CCCCCCCC(=O)O` [Azeliac acid], the “Effective Buffering Range” value is 3.3-6.0. Further, the pKa (buffers and stabilizers of Table 1) was 4.60.

Take `CC(O)C(=O)O` (stereo not shown) [Lactic acid]: the “Effective Buffering Range” value is listed as 2.8-5.3.

For the compound `CC[C@@H]1C(=O)OC[C@@H]1Cc1cncn1C` [pilocarpine, reference compound], the pKa of pilocarpine is listed as around 6.5.

As to Citrate buffer, the “Effective Buffering Range” value reads like this: (listed as Citrate buffer-pKa1) 2.2-5.0; (listed as Citrate buffer-pKa2) 3.0-6.2.
